Values joined by “and” are separate entries in the source; they are usually repeats but may differ in a detail not shown here. Equal entries are not always repeated.
Tested on: 994946-033-R-J1-PDC complex spheroid viability
Experiment: Anticancer human tumor 994946-033-R-J1-PDC patient-derived melanoma cell line growth inhibition [POLQ]
Conditions: for viability, T/C: stronger effect = lower value
Method: Multicellular complex tumor spheroid response to Polymerase (POL) inhibitors (novobiocin, ART-558, RP6685) in combination with a variety of drugs and investigational agents in selected tumor cell lines
The POL inhibitors (novobiocin, ART-558, and RP6685) were evaluated both individually and in combination with standard of care and investigational anticancer small molecules within a complex spheroid model of solid tumors. . Complex spheroids include a stromal component modeled by human endothelial cells (HUVEC) and fibroblasts modeled by human mesenchymal stem cells (MSCs). The concentration ranges selected for each drug and investigational agent were based upon clinically achievable concentrations if the clinical Cmax of the agent was known.
Compounds. The drugs and investigational agents: novobiocin (NSC847541), ART-558 (NSC835418), RP-6685 (NSC848927), peposertib (NSC802822), ceralasertib (NSC780249), elimusertib (NSC800525), camonsertib (NSC841442), AZD-1390 (NSC803789), olaparib (NSC753686), talazoparib (NSC767125), rucaparib (NSC756644), sotorasib (NSC818433), MRTX-1133 (NSC836407), SN-38 (NSC673596), topotecan (NSC609699), epotoside (NSC141540), doxorubicin (NSC123127), gemcitabine (NSC613327), 5-fluorouracil (NSC19893), paclitaxel (NSC125973), vemurafenib (NSC761431), MSA-2 (NSC828583), SN-011 (NSC837082), adavosertib (NSC754352), prexasertib (NSC758257), carboplatin (NSC241240) and oxaliplatin (NSC266046), were obtained from the National Cancer Institute (NCI) Developmental Therapeutics Program Chemical Repository (21). The FDA-approved anticancer drug set is available from the Developmental Therapeutics Program at https://dtp.cancer.gov/organization/dscb/obtaining/. […] The stock solutions were prepared in dimethyl sulfoxide (DMSO, Sigma-Aldrich, St. Louis, MO, cat. D2650), except for the platinum compounds which were prepared in saline (Quality Biological, Gaithersburg, MD, cat. 114-055-101), at 800-fold the tested concentration and stored at -70 degrees C prior to their use. All drugs and investigational agents were tested over a range starting from a high concentration at or near the clinical Cmax and decreasing in half-log increments. If the clinical Cmax for an agent had not been determined, the highest concentration tested was 10 microM, except for SN-38, which was tested at a high concentration of 1 microM.
Cell Culture. All cells were maintained in an incubator at 37 degrees C and 5% CO2 with 95% humidity. The PDC lines were cultured according to standard operating procedures established by the NCI PDMR (https://pdmr.cancer.gov). Table 3 of the manuscript, lists the cell lines along with the number of the three cell types plated to form the mct-spheroids and media for tumor cell growth. After thawing, all PDC lines, except 997537-175-T-J1-PDC and 415267-285-R-J2-PDC, were cultured in Matrigel-coated flasks prepared with a working solution of 1X Ham's F-12 nutrient mix, without supplementation (Thermo Fisher Scientific, cat. 11765054), 100 U/mL penicillin-streptomycin (Thermo Fisher Scientific, cat. 15140122), and 2.5% Matrigel (Corning Inc., Corning, NY, cat. 354248) for the first three passages. The two PDC lines 997537-175-T-J1-PDC and 415267-285-R-J2-PDC were cultured on uncoated flasks. The 857933-349-R-J2-PDC line was cultured in 6C/Colon 1B media containing advanced DMEM/F-12 (Thermo Fisher Scientific, cat. 12634028), 10 mM HEPES (Thermo Fisher Scientific, cat. 15630080), 1X GlutaMAX supplement (Thermo Fisher Scientific, cat. 35050061), 0.1 mg/mL primocin (InvivoGen, San Diego, CA, cat. ant-pm-2), 10% defined fetal bovine serum, heat inactivated (HyClone Laboratories Inc., Logan, UT, cat. SH30070.03HI), 50% L-WRN conditioned media (ATCC, cat. CRL-3276), 1.25 mM N-Acetyl-L-cysteine (Sigma-Aldrich, cat. A9165), 10 mM nicotinamide (Sigma-Aldrich, cat. N0636), 1X B-27 supplement (Thermo Fisher Scientific, cat. 17504044), 1X N-2 supplement (Thermo Fisher Scientific, cat. […]
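Also: spheroids exposed to drugs for 7 days.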
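For viability, T/C in this document: 100% = DMSO vehicle treated spheroids.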

## CC(=O)O[C@H]1C(=O)[C@@]2(C)[C@H]([C@H](OC(=O)c3ccccc3)[C@]3(O)C[C@H](OC(=O)[C@H](O)[C@@H](NC(=O)c4ccccc4)c4ccccc4)C(C)=C1C3(C)C)[C@]1(OC(C)=O)CO[C@@H]1C[C@@H]2O
Compound 0.00949 µM
  viability, T/C: 24.4% and 24.8% and 18.7%
Compound 0.03 µM
  viability, T/C: 21.9% and 23.1% and 18.1%
Compound 0.0949 µM
  viability, T/C: 18.5% and 17.9% (2×)
Compound 0.3 µM
  viability, T/C: 17.7% and 11.9% and 15.6%
Compound 0.949 µM
  viability, T/C: 18.8% and 15.4% and 12.7%
Compound 3 µM
  viability, T/C: 11.4% and 13% and 9.5%
Curve of compound
  IC50: < 0.00949 µM

## O=C(c1cc(Cc2n[nH]c(=O)c3ccccc23)ccc1F)N1CCN(C(=O)C2CC2)CC1
Compound 0.0316 µM
  viability, T/C: 98.7% and 77.9% and 85.7%
Compound 0.1 µM
  viability, T/C: 94% and 103% and 89.2%
Compound 0.316 µM
  viability, T/C: 101% and 90.9% and 80.3%
Compound 1 µM
  viability, T/C: 91.5% and 88.8% and 54.5%
Compound 3.16 µM
  viability, T/C: 63.4% and 55.2% and 62.6%
Compound 10 µM
  viability, T/C: 32.4% and 33.3% and 36.9%
Curve of compound
  IC50: 5.19 µM and 4.15 µM and 4.32 µM

## COc1cc2cc(C(=O)CCC(=O)O)sc2cc1OC
Compound 0.0316 µM
  viability, T/C: 75.1% and 90.9% and 96.1%
Compound 0.1 µM
  viability, T/C: 84.1% and 72% and 94.5%
Compound 0.316 µM
  viability, T/C: 85.4% and 111% and 76.8%
Compound 1 µM
  viability, T/C: 88.2% and 64.1% and 113%
Compound 3.16 µM
  viability, T/C: 96% and 104% and 75.2%
Compound 10 µM
  viability, T/C: 95.3% and 89.2% and 61.4%
Curve of compound
  IC50: > 10 µM

## C=CCn1c(=O)c2cnc(Nc3ccc(N4CCN(C)CC4)cc3)nc2n1-c1cccc(C(C)(C)O)n1 + COC1C(OC(N)=O)C(O)C(Oc2ccc3c(O)c(NC(=O)c4ccc(O)c(CC=C(C)C)c4)c(=O)oc3c2C)OC1(C)C
Curve of first compound, second compound 0.0316 µM
  IC50: 0.855 µM
Curve of first compound, second compound 0.1 µM
  IC50: 0.863 µM
Curve of first compound, second compound 0.316 µM
  IC50: 0.675 µM
Curve of first compound, second compound 1 µM
  IC50: > 1 µM
Curve of first compound, second compound 3.16 µM
  IC50: > 1 µM
Curve of first compound, second compound 10 µM
  IC50: 0.966 µM
Second compound 0.0316 µM, first compound 0.00316 µM
  viability, T/C: 89.1%
Second compound 0.0316 µM, first compound 0.01 µM
  viability, T/C: 115%
Second compound 0.0316 µM, first compound 0.0316 µM
  viability, T/C: 126%
Second compound 0.0316 µM, first compound 0.1 µM
  viability, T/C: 117%
Second compound 0.0316 µM, first compound 0.316 µM
  viability, T/C: 92.8%
Second compound 0.0316 µM, first compound 1 µM
  viability, T/C: 43.2%
Second compound 0.1 µM, first compound 0.00316 µM
  viability, T/C: 93.1%
Second compound 0.1 µM, first compound 0.01 µM
  viability, T/C: 101%
Second compound 0.1 µM, first compound 0.0316 µM
  viability, T/C: 117%
Second compound 0.1 µM, first compound 0.1 µM
  viability, T/C: 96%
Second compound 0.1 µM, first compound 0.316 µM
  viability, T/C: 89.2%
Second compound 0.1 µM, first compound 1 µM
  viability, T/C: 44.3%
Second compound 0.316 µM, first compound 0.00316 µM
  viability, T/C: 98.5%
Second compound 0.316 µM, first compound 0.01 µM
  viability, T/C: 109%
Second compound 0.316 µM, first compound 0.0316 µM
  viability, T/C: 134%
Second compound 0.316 µM, first compound 0.1 µM
  viability, T/C: 102%
Second compound 0.316 µM, first compound 0.316 µM
  viability, T/C: 83.9%
Second compound 0.316 µM, first compound 1 µM
  viability, T/C: 32.8%
Second compound 1 µM, first compound 0.00316 µM
  viability, T/C: 110%
Second compound 1 µM, first compound 0.01 µM
  viability, T/C: 118%
Second compound 1 µM, first compound 0.0316 µM
  viability, T/C: 94.9%
Second compound 1 µM, first compound 0.1 µM
  viability, T/C: 102%
Second compound 1 µM, first compound 0.316 µM
  viability, T/C: 104%
Second compound 1 µM, first compound 1 µM
  viability, T/C: 60.8%
Second compound 3.16 µM, first compound 0.00316 µM
  viability, T/C: 91.9%
Second compound 3.16 µM, first compound 0.01 µM
  viability, T/C: 127%
Second compound 3.16 µM, first compound 0.0316 µM
  viability, T/C: 106%
Second compound 3.16 µM, first compound 0.1 µM
  viability, T/C: 83.2%
Second compound 3.16 µM, first compound 0.316 µM
  viability, T/C: 56.5%
Second compound 3.16 µM, first compound 1 µM
  viability, T/C: 53.9%
Second compound 10 µM, first compound 0.00316 µM
  viability, T/C: 101%
Second compound 10 µM, first compound 0.01 µM
  viability, T/C: 104%
Second compound 10 µM, first compound 0.0316 µM
  viability, T/C: 120%
Second compound 10 µM, first compound 0.1 µM
  viability, T/C: 114%
Second compound 10 µM, first compound 0.316 µM
  viability, T/C: 93.8%
Second compound 10 µM, first compound 1 µM
  viability, T/C: 48.6%

## CC1COCCN1c1cc(C2(S(C)(=N)=O)CC2)nc(-c2ccnc3[nH]ccc23)n1 (stereo unspecified)
Compound 0.0316 µM
  viability, T/C: 106% and 105% and 113%
Compound 0.1 µM
  viability, T/C: 112% and 97.5% and 98.7%
Compound 0.316 µM
  viability, T/C: 90.5% and 86.8% and 93.9%
Compound 1 µM
  viability, T/C: 70.6% and 57.9% and 68.7%
Compound 3.16 µM
  viability, T/C: 42% and 44.5% and 52%
Compound 10 µM
  viability, T/C: 56.6% and 52.9% and 32.3%
Curve of compound
  IC50: 8.06 µM and 2.89 µM and 3.41 µM

## CCCS(=O)(=O)Nc1ccc(F)c(C(=O)c2c[nH]c3ncc(-c4ccc(Cl)cc4)cc23)c1F
Compound 0.0316 µM
  viability, T/C: 77.1% and 111% and 98.1%
Compound 0.1 µM
  viability, T/C: 88.1% and 101% and 79.8%
Compound 0.316 µM
  viability, T/C: 101% and 93.3% and 103%
Compound 1 µM
  viability, T/C: 123% and 91.3% and 106%
Compound 3.16 µM
  viability, T/C: 93.8% and 70.6% and 69.6%
Compound 10 µM
  viability, T/C: 15.7% and 25% and 19.7%
Curve of compound
  IC50: 6.05 µM and 5.24 µM and 4.97 µM

## O=C(Nc1ccc(O)c(NS(=O)(=O)c2ccc(F)cc2)c1)c1ccc(-c2ccccc2)cc1
Compound 0.0316 µM
  viability, T/C: 68.8% and 116% and 90.9%
Compound 0.1 µM
  viability, T/C: 87.8% and 77.9% and 78.2%
Compound 0.316 µM
  viability, T/C: 83.3% and 91.7% and 96%
Compound 1 µM
  viability, T/C: 80.3% and 100% and 96.6%
Compound 3.16 µM
  viability, T/C: 89.9% and 85.7% and 90.8%
Compound 10 µM
  viability, T/C: 39% and 46.8% and 25.6%
Curve of compound
  IC50: 7.46 µM and 9.19 µM and 6.49 µM

## C=CCn1c(=O)c2cnc(Nc3ccc(N4CCN(C)CC4)cc3)nc2n1-c1cccc(C(C)(C)O)n1
Compound 0.00316 µM
  viability, T/C: 106% and 121% and 99.1%
Compound 0.01 µM
  viability, T/C: 109% and 114% and 99.8%
Compound 0.0316 µM
  viability, T/C: 113% and 106% and 123%
Compound 0.1 µM
  viability, T/C: 105% and 97.1% and 72.5%
Compound 0.316 µM
  viability, T/C: 97.5% and 68.8% and 88.4%
Compound 1 µM
  viability, T/C: 27.4% and 34.9% and 30.9%
Curve of compound
  IC50: 0.691 µM and 0.608 µM and 0.651 µM

From PubChem BioAssay AID1963827 (Molecular Pharmacology Branch, DTP, NCI, 2024)
